As usually defined, the IC50 is the concentration at which inhibition is half-maximal.

One test deals with Aβ1-42 production. The test can be described thus: Cellular assay for inhibition of Aβ1-42 production (H4 APP751 SWE clone 8.20). In kind it is cell-based. Conditions: 19 h, H4 APP751 SWE clone 8.20 cells, 19 h incubation; class symbols; read-out: Activity Rating (Aβ42 cellular IC50). In outline:
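Aβ42 read by time-resolved FRET using neoepitope antibody 565 (0.8 ng/well) paired with N-terminal 26D6 (75 ng/well), incubated overnight at 4 °C, then IC50 curve fitting. Cells: H4 APP751 Swedish clone 8.20, exposed to compound for 19 h at 37 °C.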
For the compound `CNc1nc(Nc2ccc(Br)cc2OC)nc2c1CCC2c1ccccc1` (stereo not drawn) [Example 221, N2-(4-bromo-2-methoxyphenyl)-N4-methyl-7-phenyl-6,7-dihydro-5H-cyclopenta[d]pyrimidine-2,4-diamine], the IC50 is above 1000 nM. Regarding `CNc1nc(Nc2ccc(-n3cnc(Cl)c3)c(OC)c2)nc2c1CCC2c1ccc(OC(F)(F)F)cc1` (racemic) [Example 97, N^2-(4-(4-Chloro-1H-imidazol-1-yl)-3-methoxyphenyl)-N^4-methyl-7-(4-(trifluoromethoxy)phenyl)-6,7-dihydro-5H-cyclopenta[d]pyrimidine-2,4-diamine], the IC50 lay within 1.5 to 9.9 nM. On the same count and under the same terms, the value for `CNc1nc(Nc2ccc(OC(F)(F)F)cc2)nc2c1CCC2c1ccccc1` (stereo not drawn) [Example 236, N4-methyl-7-phenyl-N2-(4-(trifluoromethoxy)phenyl)-6,7-dihydro-5H-cyclopenta[d]pyrimidine-2,4-diamine] was above 1000 nM; that for `CNc1nc(Nc2ccc(-n3cnc(Cl)c3)c(OC)c2)nc2c1CN(C)CC2c1ccccc1` (stereo not drawn) [Example 148A, N2-(4-(4-chloro-1H-imidazol-1-yl)-3-methoxyphenyl)-N4,6-dimethyl-8-phenyl-5,6,7,8-tetrahydropyrido[4,3-d]pyrimidine-2,4-diamine] was 1.5 to 9.9 nM; that for `CNc1nc(Nc2ccc(-n3cnc(C)n3)c(F)c2)nc2c1CCC2c1ccccc1` (stereo not drawn) [Example 2, N2-(3-fluoro-4-(3-methyl-1H-1,2,4-triazol-1-yl)phenyl)-N4-methyl-7-phenyl-6,7-dihydro-5H-cyclopenta[d]pyrimidine-2,4-diamine] was 1.5 to 9.9 nM. Same read-out and setting: the value for `CCNc1nc(Nc2ccc(-n3cnc(C)n3)c(F)c2)nc2c1CN(C(=O)C1CC1)CC2c1ccccc1` (stereo not drawn) [Example 143, cyclopropyl(4-(ethylamino)-2-(3-fluoro-4-(3-methyl-1H-1,2,4-triazol-1-yl)phenylamino)-8-phenyl-7,8-dihydropyrido[4,3-d]pyrimidin-6(5H)-yl)methanone] was 10 to 100 nM. The same measure, in the same setting: the value for `CNc1nc(Nc2ccc(-n3cnc(Cl)c3)c(OC)c2)nc2c1COCC2c1ccc(F)cc1` (racemic) [Example 60, N2-(4-(4-chloro-1H-imidazol-1-yl)-3-methoxyphenyl)-8-(4-fluorophenyl)-N4-methyl-7,8-dihydro-5H-pyrano[4,3-d]pyrimidine-2,4-diamine] was 1.5 to 9.9 nM. For the compound `CNc1nc(Nc2ccc(C(=O)N(C)C)cc2)nc2c1CCC2c1ccccc1` (stereo not drawn) [Example 243, N,N-dimethyl-4-(4-(methylamino)-7-phenyl-6,7-dihydro-5H-cyclopenta[d]pyrimidin-2-ylamino)benzamide], the IC50 lay within 100 to 1000 nM. The same measure, in the same setting: in the case of `CNc1nc(Nc2ccc(-n3cnc(Cl)c3)c(OC)c2)nc2c1COCC2c1ccc(Br)cc1` (stereo not drawn) [Example 72, 8-(4-bromophenyl)-N^2-(4-(4-chloro-1H-imidazol-1-yl)-3-methoxyphenyl)-N^4-methyl-7,8-dihydro-5H-pyrano[4,3-d]pyrimidine-2,4-diamine] it was 1.5 to 9.9 nM. On the same count and under the same terms, in the case of `[2H]C([2H])([2H])Nc1nc(Nc2ccc(-n3cnc(Cl)c3)c(OC)c2)nc2c1CCC2c1ccccc1` (stereo not drawn) [Example 176, N^2-(4-(4-Chloro-1H-imidazol-1-yl)-3-methoxyphenyl)-N^4-trideuteromethyl-7-phenyl-6,7-dihydro-5H-cyclopenta[d]pyrimidine-2,4-diamine] it was 1.5 to 9.9 nM; in that of `COc1cc(Nc2nc3c(c(N4CCC(F)(F)CC4)n2)CCC3c2ccc(F)cc2)ccc1-n1cnc(Cl)c1` (stereo not drawn) [Example 39B, N-(4-(4-chloro-1H-imidazol-1-yl)-3-methoxyphenyl)-4-(4,4-difluoropiperidin-1-yl)-7-(4-fluorophenyl)-6,7-dihydro-5H-cyclopenta[d]pyrimidin-2-amine], 100 to 1000 nM; in that of `CNc1nc(Nc2ccc(-n3cnc(C)n3)c(OC)c2)nc2c1COCC2c1ccc(F)cc1` (racemic) [Example 54, 8-(4-fluorophenyl)-N2-(3-methoxy-4-(3-methyl-1H-1,2,4-triazol-1-yl)phenyl)-N4-methyl-7,8-dihydro-5H-pyrano[4,3-d]pyrimidine-2,4-diamine], 10 to 100 nM. Same read-out and setting: the value for `COc1cc(Nc2nc3c(c(N4CC(F)(F)C4)n2)CCC3c2ccc(F)cc2)ccc1-n1cnc(Cl)n1` (single isomer, unassigned) [Example 17B, N-(4-(3-chloro-1H-1,2,4-triazol-1-yl)-3-methoxyphenyl)-4-(3,3-difluoroazetidin-1-yl)-7-(4-fluorophenyl)-6,7-dihydro-5H-cyclopenta[d]pyrimidin-2-amine] was 10 to 100 nM; that for `Cc1ccc(C(C)C)cc1Nc1nc(Nc2ccc(C#N)cc2)nc2c1CCC2c1ccccc1` (stereo not drawn) [Example 215A, 4-(4-(5-isopropyl-2-methylphenylamino)-7-phenyl-6,7-dihydro-5H-cyclopenta[d]pyrimidin-2-ylamino)benzonitrile] was above 1000 nM; that for `COc1cc(Nc2nc3c(c(N4CC[C@H](F)C4)n2)CCC3c2ccc(F)cc2)ccc1-n1cnc(Cl)c1` (single isomer, unassigned) [Example 36] was 10 to 100 nM. As for `CCNc1nc(Nc2ccc(-n3cnc(C)n3)c(F)c2)nc2c1CN(S(C)(=O)=O)CC2c1ccccc1` (stereo not drawn) [Example 139, N4-ethyl-N2-(3-fluoro-4-(3-methyl-1H-1,2,4-triazol-1-yl)phenyl)-6-(methylsulfonyl)-8-phenyl-5,6,7,8-tetrahydropyrido[4,3-d]pyrimidine-2,4-diamine], the IC50 lay within 10 to 100 nM.

The same test, now with this note: 19 h, H4 APP751 SWE clone 8.20 cells, 19 h incubation; read-out: Activity Rating (Aβ42 cellular IC50), numeric value.
With `COc1cc(Nc2nc3c(c(N4CCCC4C)n2)CCC3c2ccc(F)cc2)ccc1-n1cnc(Cl)c1` (single isomer, unassigned) [Example 19B, N-(4-(4-chloro-1H-imidazol-1-yl)-3-methoxyphenyl)-7-(4-fluorophenyl)-4-(2-methylpyrrolidin-1-yl)-6,7-dihydro-5H-cyclopenta[d]pyrimidin-2-amine], the IC50 amounted to 59 nM. Same read-out and setting: the value for `COc1cc(Nc2nc3c(c(N4CCN(C)CC4)n2)CCC3c2ccc(F)cc2)ccc1-n1cnc(Cl)c1` (single isomer, unassigned) [Example 30B, N-(4-(4-chloro-1H-imidazol-1-yl)-3-methoxyphenyl)-7-(4-fluorophenyl)-4-(4-methylpiperazin-1-yl)-6,7-dihydro-5H-cyclopenta[d]pyrimidin-2-amine] was 230 nM; that for `CCNc1nc(Nc2ccc(-n3ncnc3C)c(F)c2)nc2c1CN(CC(F)F)CC2c1ccccc1` (stereo not drawn) [Example 194B, 6-(2,2-difluoroethyl)-N4-ethyl-N2-(3-fluoro-4-(5-methyl-1H-1,2,4-triazol-1-yl)phenyl)-8-phenyl-5,6,7,8-tetrahydropyrido[4,3-d]pyrimidine-2,4-diamine] was 175 nM; that for `CCN(C)c1nc(Nc2ccc(-n3cnc(Cl)c3)c(OC)c2)nc2c1COCC2c1ccc(F)cc1` (stereo not drawn) [Example 62B, N2-(4-(4-chloro-1H-imidazol-1-yl)-3-methoxyphenyl)-N4-ethyl-8-(4-fluorophenyl)-N4-methyl-7,8-dihydro-5H-pyrano[4,3-d]pyrimidine-2,4-diamine] was 86 nM.

Take `CC#Cc1ccc(Nc2nc(NC)c3c(n2)C(c2ccc(F)cc2)CC3)cc1` (stereo not drawn) [Example 260, 7-(4-fluorophenyl)-N4-methyl-N2-(4-(prop-1-ynyl)phenyl)-6,7-dihydro-5H-cyclopenta[d]pyrimidine-2,4-diamine]: the IC50 turned out to be 860 nM.

Staying with this test, now noted: H4 APP751 SWE clone 8.20 cells, 19 h incubation; class symbols; read-out: Activity Rating (Aβ42 cellular IC50).
`COc1cc(Nc2nc3c(c(N(C)C)n2)CCC3c2ccc(F)c(F)c2)ccc1-n1cnc(Cl)c1` (single isomer, unassigned) [Example 95B, N^2-(4-(4-chloro-1H-imidazol-1-yl)-3-methoxyphenyl)-7-(3,4-difluorophenyl)-N^4,N^4-dimethyl-6,7-dihydro-5H-cyclopenta[d]pyrimidine-2,4-diamine]: the IC50 lay within 10 to 100 nM. The same measure, in the same setting: the value for `COc1cc(Nc2nc3c(c(N4CC(F)(F)C4)n2)COCC3c2ccc(F)cc2)ccc1-n1cnc(Cl)c1` (stereo not drawn) [Example 63A, N-(4-(4-chloro-1H-imidazol-1-yl)-3-methoxyphenyl)-4-(3,3-difluoroazetidin-1-yl)-8-(4-fluorophenyl)-7,8-dihydro-5H-pyrano[4,3-d]pyrimidin-2-amine] was 10 to 100 nM.

With `CNc1nc(Nc2ccc(-n3cnc(C)n3)c(OC)c2)nc2c1CCC2c1ccc(F)cc1F` (single isomer, unassigned) [Example 193A, 7-(2,4-difluorophenyl)-N2-(3-methoxy-4-(3-methyl-1H-1,2,4-triazol-1-yl)phenyl)-N4-methyl-6,7-dihydro-5H-cyclopenta[d]pyrimidine-2,4-diamine], the IC50 lay within 100 to 1000 nM.

In the case of `COc1cc(Nc2nc3c(c(N(C)C)n2)COCC3c2ccccc2)ccc1-n1cnc(Cl)c1` (single isomer, unassigned) [Example 53B, N^2-(4-(4-Chloro-1H-imidazol-1-yl)-3-methoxyphenyl)-N^4,N^4-dimethyl-8-phenyl-7,8-dihydro-5H-pyrano[4,3-d]pyrimidine-2,4-diamine], the IC50 is 10 to 100 nM. Consider `COc1cc(Nc2nc3c(c(N4CCCC4C)n2)CCC3c2ccc(F)cc2)ccc1-n1cnc(Cl)c1` (single isomer, unassigned) [Example 20A, N-(4-(4-chloro-1H-imidazol-1-yl)-3-methoxyphenyl)-7-(4-fluorophenyl)-4-(2-methylpyrrolidin-1-yl)-6,7-dihydro-5H-cyclopenta[d]pyrimidin-2-amine], for which the IC50 is 1.5 to 9.9 nM.

Staying with this test, now noted: H4 APP751 SWE clone 8.20 cells, 19 h incubation; read-out: Activity Rating (Aβ42 cellular IC50), numeric value.
Take `CCNc1nc(Nc2ccc(-n3cnc(Cl)c3)c(OC)c2)nc2c1CN(CC(F)F)CC2c1ccccc1` (stereo not drawn) [Example 197, N4-ethyl-N2-(3-methoxy-4-(4-chloro-1H-13-imidazol-1-yl)phenyl)-8-phenyl-6-(2,2-difluoroethyl)-5,6,7,8-tetrahydropyrido[4,3-d]pyrimidine-2,4-diamine]: the IC50 is 16 nM.

(Values after US8637525B2, “Compounds for the reduction of beta-amyloid production” (Bristol-Myers Squibb Company, priority 2009, dated 2014).)
